Data on one molecule can be found in paper PMC8414802, “Hair Cell Generation in Cochlear Culture Models Mediated by Novel γ-Secretase Inhibitors” (Frontiers in Cell and Developmental Biology, 2021).

Each structure is given as a SMILES string.

This test has as its system hair cells in sisomicin-treated rat OC explants. In words: OC explants after sisomicin ototoxic damage. It is filed as cell-based. As to conditions: sisomicin 200 μM 2 h. On the procedure: To induce ototoxic damage, medium was removed from the OC cultures on the day after dissection and either 200 μM sisomicin (Sigma) in full otic medium, or 10^8 cfu/ml Streptococcus pneumoniae (described below) in ampicillin-free and FBS-free otic medium were added under the transwell membrane (lower compartment) of the cultivation system. After 2 h of exposure to the ototoxic insult, OCs were carefully washed 3 times and culture was continued for 4 days in fresh full otic medium.
Following culture, explants were washed (PBS) and fixed for 10 min at room temperature (RT) with 4% paraformaldehyde (PFA). […]
Dividing cells were labeled with, 5-ethyl-2′-deoxyuridine (EdU) and detected with Click-it Plus kit (Life Technologies). […]
Image processing was performed with the open-source image processing software FIJI, version 2.0 ([Schindelin et al., 2012]). Hair cells were quantified by counting Pou4f3 or Myo7a positive cells of the organ of Corti at three random microscopic fields for each cochlear region (base, middle, and apex) covering in total at least 1,200 μm. The number of hair cells (IHCs and OHCs) is expressed as unit per 100 μm.
FIGURE 3 GSI treatment after ototoxic damage. […] (B) Quantification of OHCs in sisomicin-treated explants (2 h; 200 μM), 4 days after ototoxic insult, and cultured in presence or absence of CPD3. […] (F) OHC quantification after bacteria-induced damage. […]

Take `COc1ccc2c(c1)N1CCC(C)(C)C1=CC(=O)[C@H]2NC(=O)[C@H](C)NC(=O)CCC(F)(F)F` [CPD3]: the “Increase of OHC numbers after sisomicin” value (4 days culture, apex) is on record as “not statistically significant”. In addition, the “Pou4f3/Sox2 double-positive cells after sisomicin” value (4 days, p = 0.057) is “observed only in the apical domain”.
